Measurements published in patent US20120029187A1, “HALOALKYLSULFONANILIDE DERIVATIVE” (Nissan Chemical Industries, Ltd., priority 2009, published 2012).

Experiments:
Type in all cases: in vivo
ducksalad [1] = test: Test Example 1: herbicidal effects in preemergence treatment under submerged conditions; conditions: dose 2.52 g/a
How it was run: (§1)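 Score 0–5 by mortality (5: ≥90%; 0: <5%), read 3 weeks post-application. Paddy-type cups: alluvial soil under 4 cm water, weeds seeded plus transplanted 2.5-leaf rice; diluted EC dosed onto water surface same day as sowing, g/a basis; greenhouse 25 to 30° C.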

bulrush [2] = test: as above; conditions: dose 2.52 g/a
How it was run: as §1

barnyardgrass [3] = test: as above; conditions: dose 2.52 g/a
How it was run: as §1

large crabgrass [4] = test: Test Example 3: herbicidal effects in soil treatment; conditions: dose 3.2 g/a
How it was run: (§2)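 Seeds were sown in sterilized diluvial soil and covered with about 1.5 cm of soil. Compounds, formulated as emulsifiable concentrates and diluted with water, were sprayed evenly over the soil surface at set doses in g/a. Herbicidal effect was scored on a rating scale three weeks later.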

common lambsquater [5] = test: as above; conditions: dose 3.2 g/a
How it was run: as §2

giant foxtail [6] = test: as above; conditions: dose 3.2 g/a
How it was run: as §2

velvetleaf [7] = test: as above; conditions: dose 3.2 g/a
How it was run: as §2

common ragweed [8] = test: as above; conditions: dose 3.2 g/a
How it was run: as §2

posumbu knotweed [9] = test: as above; conditions: dose 3.2 g/a
How it was run: as §2

Italian ryegrass [10] = test: as above; conditions: dose 3.2 g/a
How it was run: as §2

water foxtail [11] = test: as above; conditions: dose 3.2 g/a
How it was run: as §2

common chickweed [12] = test: as above; conditions: dose 3.2 g/a
How it was run: as §2

beadstraw [13] = test: as above; conditions: dose 3.2 g/a
How it was run: as §2

redroot pigweed [14] = test: as above; conditions: dose 3.2 g/a
How it was run: as §2

barnyardgrass [15] = test: as above; conditions: dose 3.2 g/a
How it was run: as §2

ducksalad [16] = test: Test Example 2: herbicidal effects during the vegetation period under submerged conditions; conditions: treatment during the vegetation period under submerged conditions; dose 2.52 g/a
How it was run: (§3)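 Barnyardgrass, bulrush and ducksalad were co-sown in alluvial soil flooded to 4 cm and grown in a greenhouse at 25 to 30° C. At the 1- or 2-leaf stage, water-diluted emulsifiable concentrates went onto the water surface at set doses (g/a). Herbicidal effect was scored three weeks later on a graded scale.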

bulrush [17] = test: as above; conditions: treatment during the vegetation period under submerged conditions; dose 2.52 g/a
How it was run: as §3

barnyardgrass [18] = test: as above; conditions: treatment during the vegetation period under submerged conditions; dose 2.52 g/a
How it was run: as §3

transplanted rice = test: Test Example 1: preemergence treatment under submerged conditions, effect on crop; conditions: dose 2.52 g/a
How it was run: as §1

large crabgrass [19] = test: Test Example 4: herbicidal effect in foliage treatment; conditions: dose 3.2 g/a
How it was run: (§4)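 Post-emergence foliar spray of water-diluted emulsifiable concentrate at predetermined doses (g per are), applied to plants 14 days after sowing in sterile diluvial soil (greenhouse, 25 to 30° C). Visual scale rating of effect taken 3 weeks later.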

common lambsquater [20] = test: as above; conditions: dose 3.2 g/a
How it was run: as §4

giant foxtail [21] = test: as above; conditions: dose 3.2 g/a
How it was run: as §4

velvetleaf [22] = test: as above; conditions: dose 3.2 g/a
How it was run: as §4

common ragweed [23] = test: as above; conditions: dose 3.2 g/a
How it was run: as §4

posumbu knotweed [24] = test: as above; conditions: dose 3.2 g/a
How it was run: as §4

Italian ryegrass [25] = test: as above; conditions: dose 3.2 g/a
How it was run: as §4

water foxtail [26] = test: as above; conditions: dose 3.2 g/a
How it was run: as §4

common chickweed [27] = test: as above; conditions: dose 3.2 g/a
How it was run: as §4

beadstraw [28] = test: as above; conditions: dose 3.2 g/a, three weeks after application
How it was run: as §4

redroot pigweed [29] = test: as above; conditions: dose 3.2 g/a
How it was run: as §4

barnyardgrass [30] = test: as above; conditions: dose 3.2 g/a
How it was run: as §4

[31] = three weeks after the application

SMILES | C: ducksalad, herbicidal effect (evaluation scale 0-5) (ducksalad [1]) | B: bulrush, herbicidal effect (evaluation scale 0-5) (bulrush [2]) | A: barnyardgrass, herbicidal effect (evaluation scale 0-5) (barnyardgrass [3]) | D: large crabgrass, herbicidal effect (evaluation scale 0-5) (large crabgrass [4]) | L: common lambsquater, herbicidal effect (evaluation scale 0-5) (common lambsquater [5]) | E: giant foxtail, herbicidal effect (evaluation scale 0-5) (giant foxtail [6]) | I: velvetleaf, herbicidal effect (evaluation scale 0-5) (velvetleaf [7]) | J: common ragweed, herbicidal effect (evaluation scale 0-5) (common ragweed [8]) | M: posumbu knotweed, herbicidal effect (evaluation scale 0-5) (posumbu knotweed [9]) | H: Italian ryegrass, herbicidal effect (evaluation scale 0-5) (Italian ryegrass [10]) | G: water foxtail, herbicidal effect (evaluation scale 0-5) (water foxtail [11]) | N: common chickweed, herbicidal effect (evaluation scale 0-5) (common chickweed [12]) | O: beadstraw, herbicidal effect (evaluation scale 0-5) (beadstraw [13]) | K: redroot pigweed, herbicidal effect (evaluation scale 0-5) (redroot pigweed [14]) | A: barnyardgrass, herbicidal effect (evaluation scale 0-5) (barnyardgrass [15]) | C: ducksalad, herbicidal effect (evaluation scale 0-5) (ducksalad [16]) | B: bulrush, herbicidal effect (evaluation scale 0-5) (bulrush [17]) | A: barnyardgrass, herbicidal effect (evaluation scale 0-5) (barnyardgrass [18]) | a: transplanted rice, effect on crop (evaluation scale 0-5) (transplanted rice) | other results
CC1(C)CC(=O)N(Cc2ccccc2N(C(=O)OCCCl)S(=O)(=O)C(F)(F)F)CO1 [II-28] | 5 (mortality of 90% or above (nearly complete death)) | 5 (mortality of 90% or above (nearly complete death)) | 5 (mortality of 90% or above (nearly complete death)) | 5 (mortality of 90% or above (nearly complete death)) | 0 (mortality of less than 5% (almost ineffective)) | 5 (mortality of 90% or above (nearly complete death)) | 4 (mortality of at least 70% and less than 90%) | 4 (mortality of at least 70% and less than 90%) | 5 (mortality of 90% or above (nearly complete death)) | 2 (mortality of at least 20% and less than 40%) | 5 (mortality of 90% or above (nearly complete death)) | 4 (mortality of at least 70% and less than 90%) | 5 (mortality of 90% or above (nearly complete death)) | 0 (mortality of less than 5% (almost ineffective)) | 5 (mortality of 90% or above (nearly complete death)) | 5 (mortality of 90% or above (nearly complete death)) | 5 (mortality of 90% or above (nearly complete death)) | 5 (mortality of 90% or above (nearly complete death)) | 4 (mortality of at least 70% and less than 90%) | D: large crabgrass, herbicidal effect (large crabgrass [19]; three weeks after application): 4 (mortality of at least 70% and less than 90%); L: common lambsquater, herbicidal effect (common lambsquater [20]; three weeks after application): 1 (mortality of at least 5% and less than 20%); E: giant foxtail, herbicidal effect (giant foxtail [21]; three weeks after application): 4 (mortality of at least 70% and less than 90%); I: velvetleaf, herbicidal effect (velvetleaf [22]; three weeks after application): 4 (mortality of at least 70% and less than 90%); J: common ragweed, herbicidal effect (common ragweed [23]; three weeks after application): 3 (mortality of at least 40% and less than 70%); M: posumbu knotweed, herbicidal effect (posumbu knotweed [24]; three weeks after application): 4 (mortality of at least 70% and less than 90%); H: Italian ryegrass, herbicidal effect (Italian ryegrass [25]; three weeks after application): 3 (mortality of at least 40% and less than 70%); G: water foxtail, herbicidal effect (water foxtail [26]; three weeks after application): 5 (mortality of 90% or above (nearly complete death)); N: common chickweed, herbicidal effect (common chickweed [27]; three weeks after application): 4 (mortality of at least 70% and less than 90%); O: beadstraw, herbicidal effect (beadstraw [28]): 5 (mortality of 90% or above (nearly complete death)); K: redroot pigweed, herbicidal effect (redroot pigweed [29]; three weeks after application): 0 (mortality of less than 5% (almost ineffective)); A: barnyardgrass, herbicidal effect (barnyardgrass [30]; three weeks after application): 5 (mortality of 90% or above (nearly complete death))
CCOC(=O)N(c1ccccc1CN1C(=O)CC(C)(C)OC1C)S(=O)(=O)C(F)(F)F (stereo not shown) [II-74] | 5 (mortality of 90% or above (nearly complete death)) | 5 (mortality of 90% or above (nearly complete death)) | 5 (mortality of 90% or above (nearly complete death)) | 5 (mortality of 90% or above (nearly complete death)) | 1 (mortality of at least 5% and less than 20%) | 5 (mortality of 90% or above (nearly complete death)) | 5 (mortality of 90% or above (nearly complete death)) | 2 (mortality of at least 20% and less than 40%) | 5 (mortality of 90% or above (nearly complete death)) | 4 (mortality of at least 70% and less than 90%) | 5 (mortality of 90% or above (nearly complete death)) | 3 (mortality of at least 40% and less than 70%) | 4 (mortality of at least 70% and less than 90%) | 0 (mortality of less than 5% (almost ineffective)) | 5 (mortality of 90% or above (nearly complete death)) | 5 (mortality of 90% or above (nearly complete death)) | 5 (mortality of 90% or above (nearly complete death)) | 5 (mortality of 90% or above (nearly complete death)) | 3 (mortality of at least 40% and less than 70%) | D: large crabgrass, herbicidal effect (large crabgrass [19]; [31]): 5 (mortality of 90% or above (nearly complete death)); L: common lambsquater, herbicidal effect (common lambsquater [20]; [31]): 3 (mortality of at least 40% and less than 70%); E: giant foxtail, herbicidal effect (giant foxtail [21]; [31]): 3 (mortality of at least 40% and less than 70%); I: velvetleaf, herbicidal effect (velvetleaf [22]; [31]): 5 (mortality of 90% or above (nearly complete death)); J: common ragweed, herbicidal effect (common ragweed [23]; [31]): 3 (mortality of at least 40% and less than 70%); M: posumbu knotweed, herbicidal effect (posumbu knotweed [24]; [31]): 4 (mortality of at least 70% and less than 90%); H: Italian ryegrass, herbicidal effect (Italian ryegrass [25]; [31]): 5 (mortality of 90% or above (nearly complete death)); G: water foxtail, herbicidal effect (water foxtail [26]; [31]): 5 (mortality of 90% or above (nearly complete death)); N: common chickweed, herbicidal effect (common chickweed [27]; [31]): 4 (mortality of at least 70% and less than 90%); K: redroot pigweed, herbicidal effect (redroot pigweed [29]; [31]): 0 (mortality of less than 5% (almost ineffective)); A: barnyardgrass, herbicidal effect (barnyardgrass [30]; [31]): 5 (mortality of 90% or above (nearly complete death))
